# Assay results: patent publication US20250213543A1, “AN EMBRYONIC ECTODERM DEVELOPMENT INHIBITOR FOR THE TREATMENT OF SICKLE CELL DISEASE” (Fulcrum Therapeutics, Inc., priority 2022, published 2025)
# What was measured:
# Format in all cases: in vivo, human
# [1] = tested on: H3K27me3/Total Histone H3 ratio; test: Phase 1 SAD/MAD study: target engagement (change from baseline in H3K27me3/Total Histone H3 ratio); settings: healthy volunteers; across the entire dose range
# Description: (§1) Healthy volunteers received oral placebo vs. single oral doses of Compound 1 in the SAD cohorts, or oral placebo vs. single oral doses of Compound 1 once daily (QD) for 14 consecutive days in the MAD cohorts. Safety assessments included AEs, vital signs, ECGs, and laboratory parameters. PK/PD blood sampling was performed pre-dose and Days 1 and 2 in the SAD cohorts, and Days 1, 2, 7, 8 and 12-15 in the MAD cohorts. Target engagement was assessed as change from baseline in H3K27me3/Total Histone H3 ratio. PD assessments included changes in F reticulocytes and HBG mRNA.
# [2] = tested on: F-reticulocytes; test: Phase 1 MAD study: F-reticulocytes; settings: safety follow-up (SFU) visits 7-10 days post 14-day treatment; dosed at ≥6 mg
# Description: as §1
# Increases in F-cells and HbF protein are projected with longer treatment duration.
# (§2) Data in FIG. 1 and FIG. 2 are presented as geometric LS mean ratios (to placebo) with a 95% confidence interval. Mixed-effects model for repeated measures (MMRM) analysis was performed for Day 7 and Day 14 measurements. An analysis of covariance (ANCOVA) was utilized for SFU data. In FIG. 1 and FIG. 2, “PBO” is placebo.
# [3] = Phase 1 SAD/MAD clinical study in healthy volunteers: safety and tolerability
# Excerpt: (§3) This is a study of the safety, tolerability, pharmacokinetics (PK) and pharmacodynamics (PD) of Compound 1 from a Phase 1, single ascending dose (SAD) and multiple ascending dose (MAD) clinical study.
# as §1
# (§4) Compound 1 was evaluated in […] healthy volunteer (HV) SAD cohorts (2 to 60 mg), […] HV MAD cohorts (2 to 30 mg QD, 14-day dosing). SAD dose cohorts include 2 mg, 4 mg, 6 mg, 10 mg, 20 mg, 30 mg, 40 mg, and 60 mg Compound 1. MAD dose cohorts include 2 mg, 4 mg, 6 mg, 10 mg, 20 mg, and 30 mg Compound 1.
# [4] = tested on: red blood cells; test: Phase 1 open-label study in subjects with sickle cell disease: hemolysis and anemia markers (RDW, reticulocytes, total hemoglobin); settings: SCD Cohort 1, 6 mg once daily
# Excerpt: (§5) This is a Phase 1 multicenter, open-label study evaluating the safety, tolerability, pharmacokinetics (PK), fetal hemoglobin (HbF) induction and biological activity of Compound 1 in subjects 18-65 years of age with sickle cell disease (SCD). This study comprises 2 parts and is being conducted in subjects 18-65 years of age with sickle cell disease (SCD) either taking hydroxyurea (HU) at a stable dose for at least the preceding 3 months, or not taking hydroxyurea (HU).
# (§6) The study consists of two phases. In Part A, Cohort 1 received 6 mg of Compound 1 by mouth once daily for 4 weeks, Cohort 2 received 2 mg of Compound 1 by mouth once daily for 4 weeks, and Cohort 3 received 12 mg of Compound 1 by mouth once daily for 4 weeks. An additional cohort may receive up to and including 20 mg of Compound 1 by mouth once daily for 4 weeks depending on the Data Monitoring Committee [DMC] review. Additional cohorts (up to five total cohorts) may be added based on the safety and pharmacokinetic data observed in subjects from the prior and ongoing cohorts. Up to 10 subjects have been or will be enrolled in each treatment arm.
# (§7) The primary endpoints of the study are to evaluate the safety and tolerability of Compound 1 as measured by the frequency of adverse events and to evaluate single and multiple-dose pharmacokinetics of Compound 1 in subjects with sickle cell disease. […]
# [5] = tested on: fetal hemoglobin (HbF); test: Phase 1 open-label multiple-dose study in subjects with sickle cell disease: HbF induction by HPLC
# Excerpt: as §5, §6
# Part B is the extension study. Eligible subjects who consent to continue in the extension study continue on treatment at the same dose level selected in Part A for an additional 8 weeks. Subjects who decline to participate in the extension study are followed for an additional 2-3 weeks.
# The primary endpoints of the study are to evaluate the safety and tolerability of Compound 1 as measured by the frequency of adverse events and to evaluate single and multiple-dose pharmacokinetics of Compound 1 in subjects with sickle cell disease. Secondary endpoints include evaluating the effect of Compound 1 on fetal hemoglobin induction in peripheral blood, as well as changes from baseline in reticulocytes, in subjects with sickle cell disease. Exploratory endpoints include biomarkers of hemolysis, target engagement, incidence of vaso-occlusive crises (VOCs), and quality of life (QOL) measurements.
# [6] = Phase 1 SAD/MAD clinical study in healthy volunteers: pharmacokinetics; settings: oral, across all doses
# Excerpt: as §3, §1, §4
# [7] = tested on: HBG mRNA; test: Phase 1 MAD study: HBG mRNA induction
# Description: as §1
# Safety Follow-up (SFU) samples were collected 7-10 days post 14-day treatment period.
# as §2
# [8] = Phase 1 open-label multiple-dose study in subjects with sickle cell disease: safety and tolerability; settings: oral once daily
# Excerpt: as §5, §6
# Part B is the extension study. […]
# as §7
# [9] = SAD 2 to 60 mg, MAD 2 to 30 mg QD 14-day oral dosing
compound,measurement,setting,value
Cc1ncccc1-c1cc2c(n3cnnc13)NCc1c(F)ccc3c1[C@H](CO3)CO2 [Compound 1],Target engagement,[1],Robust target engagement
same,mean fold increase in F-reticulocytes,[2],1.7-3.9 fold
same,SAEs or discontinuations,[3]; [9],no SAEs or discontinuations
same,Treatment-related adverse events,[3]; [9],mild (Grade 1 or 2)
same,Tolerability / safety signals,[3]; SAD and MAD cohorts,generally well tolerated and no unexpected safety signals were detected
same,absolute reticulocyte count and total hemoglobin,[4],reductions in reticulocytes and increases in total hemoglobin
same,red cell distribution width (RDW),[4]; Subjects 7 and 8,reductions in RDW
same,response differences in HU versus non-HU treated subjects,"[5]; SCD Cohort 1, 6 mg once daily, Subjects 7 and 8",no apparent response differences
same,HbF increase,"[5]; SCD Cohort 1, 6 mg orally once daily, Subjects 7 and 8 (with and without HU), day 84",6.8%-9.5%
same,HbF response across doses,[5]; SCD Cohorts 1 and 2 (6 mg and 2 mg orally once daily),"dose-dependent, clinically relevant and consistent increase in HbF"
same,absolute HbF increases from baseline,"[5]; SCD, a subject in the 12 mg dose cohort (Cohort 3), after 42 days of treatment",up to 10.0%
same,PK profiles,[6],dose proportionality across all doses
same,HBG mRNA induction dependence,"[7]; MAD cohorts, FIG. 1",both time- and dose-dependent
same,placebo-adjusted increases from baseline in HBG mRNA,"[7]; healthy volunteers, 6-30 mg MAD cohorts, QD 14 days oral",2.4-6.2 fold
same,Tolerability,[8],generally well tolerated
